Measurements taken from US12281057B2 (VERTEX PHARMACEUTICALS INCORPORATED, priority 2017, dated 2025).

molecular target: truncated form of human NaV 1.8 with full channel activity (Homo sapiens, UniProt Q9Y5Y9); assay: E-VIPR Assay Method A for detecting and measuring Nav inhibition (HEK cells, membrane potential FRET dyes, electrical stimulation); assay type: cell-based; conditions: HEK cells expressing human NaV 1.8, HS (human serum) in compound loading buffer, 11 point dose response, top dose 3 μM, Table 20, read-out: Nav 1.8 MedChem Optical Assay EVIPR Assay Method A HS IC50
Sequence (Q9Y5Y9 126-1722 limits assumed): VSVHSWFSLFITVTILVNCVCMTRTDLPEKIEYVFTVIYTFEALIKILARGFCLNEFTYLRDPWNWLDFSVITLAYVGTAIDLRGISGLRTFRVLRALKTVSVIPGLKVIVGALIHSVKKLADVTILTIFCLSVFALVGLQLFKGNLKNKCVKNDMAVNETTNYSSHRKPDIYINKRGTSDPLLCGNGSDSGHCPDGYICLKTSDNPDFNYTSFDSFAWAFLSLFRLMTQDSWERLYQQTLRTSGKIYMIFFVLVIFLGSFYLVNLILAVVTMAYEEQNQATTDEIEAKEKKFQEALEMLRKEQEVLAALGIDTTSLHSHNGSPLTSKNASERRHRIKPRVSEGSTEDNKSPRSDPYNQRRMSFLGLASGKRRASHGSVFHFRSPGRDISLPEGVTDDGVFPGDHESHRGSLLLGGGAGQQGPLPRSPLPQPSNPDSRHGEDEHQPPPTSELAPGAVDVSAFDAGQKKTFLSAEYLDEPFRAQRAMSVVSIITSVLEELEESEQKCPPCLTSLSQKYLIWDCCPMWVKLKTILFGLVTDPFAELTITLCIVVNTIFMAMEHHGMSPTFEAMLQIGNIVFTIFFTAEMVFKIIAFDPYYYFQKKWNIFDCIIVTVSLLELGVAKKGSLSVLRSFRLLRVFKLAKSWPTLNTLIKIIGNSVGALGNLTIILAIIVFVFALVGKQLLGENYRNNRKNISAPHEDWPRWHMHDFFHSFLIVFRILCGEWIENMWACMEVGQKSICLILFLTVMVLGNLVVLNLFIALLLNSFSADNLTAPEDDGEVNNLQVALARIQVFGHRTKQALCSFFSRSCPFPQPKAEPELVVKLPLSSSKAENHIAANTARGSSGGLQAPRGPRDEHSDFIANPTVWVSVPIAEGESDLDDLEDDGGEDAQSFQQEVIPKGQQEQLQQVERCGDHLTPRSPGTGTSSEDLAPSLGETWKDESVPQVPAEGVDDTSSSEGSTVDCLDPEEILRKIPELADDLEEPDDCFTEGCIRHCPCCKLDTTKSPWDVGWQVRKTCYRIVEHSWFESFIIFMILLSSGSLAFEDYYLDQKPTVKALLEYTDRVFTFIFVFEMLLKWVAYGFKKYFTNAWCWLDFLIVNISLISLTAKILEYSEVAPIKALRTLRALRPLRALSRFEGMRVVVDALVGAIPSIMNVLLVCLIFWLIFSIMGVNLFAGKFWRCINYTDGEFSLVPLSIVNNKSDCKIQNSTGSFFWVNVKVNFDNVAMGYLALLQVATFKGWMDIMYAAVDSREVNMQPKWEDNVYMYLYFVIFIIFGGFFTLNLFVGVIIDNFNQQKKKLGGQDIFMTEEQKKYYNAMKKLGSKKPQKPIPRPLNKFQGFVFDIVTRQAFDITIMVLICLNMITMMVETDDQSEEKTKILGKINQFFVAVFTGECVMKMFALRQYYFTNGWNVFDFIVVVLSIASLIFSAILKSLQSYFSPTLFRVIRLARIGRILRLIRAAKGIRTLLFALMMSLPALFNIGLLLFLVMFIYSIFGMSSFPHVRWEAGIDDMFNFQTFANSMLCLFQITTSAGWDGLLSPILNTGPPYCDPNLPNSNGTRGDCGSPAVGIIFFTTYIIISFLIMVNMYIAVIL
Text: E-VIPR Assay Method A for Detecting and Measuring Nav Inhibition Properties Sodium ion channels are voltage-dependent proteins that can be activated by inducing membrane voltage changes by applying electric fields. The electrical stimulation instrument and methods of use, referred to as E-VIPR, are described in International Publication No. WO 2002/008748 A3 and C.-J. Huang et al. Characterization of voltage-gated sodium channel blockers by electrical stimulation and fluorescence detection of membrane potential, 24 Nature Biotech. 439-46 (2006), both of which are incorporated by reference in their entirety. The instrument comprises a microtiter plate handler, an optical system for exciting the coumarin dye while simultaneously recording the coumarin and oxonol emissions, a waveform generator, a current- or voltage-controlled amplifier, and parallel electrode pairs that are inserted into assay plate wells. Under integrated computer control, this instrument passes user-programmed electrical stimulus protocols to cells within the wells of the microtiter plate. […] Sigma #F4135), 1% NEAA (Non-Essential Amino Acids, Life Tech #11140), 1% HEPES (Life Tech #15630), 1% Pen-Strep (Penicillin-Streptomycin; […] Cells were expanded in vented cap flasks, with 95% humidity and 5% CO2. Reagents and Stock Solutions: • 100 mg/mL Pluronic F-127 (Sigma #P2443), in dry DMSO • Compound Plates: […] 5% KIR 2.1 Bacmam virus (produced in-house), prepared as described in Section 3.3 of J. A. […] The solution was made by adding 10% Pluronic F127 stock equal to combined volumes of CC2-DMPE and DiSBAC6(3). The order of preparation was first mix Pluronic and CC2-DMPE, then add DiSBAC6(3), then while vortexing add Bath1/β-Cyclodextrin. […] Assay Protocol: […] Final DMSO concentration for all wells in the assay was 0.625% (0.75% DMSO was supplemented to the Compound Loading Buffer for a final DMSO concentration of 0.625%). […] 3) Cell plates were prepared. On the day of the assay, the media was aspirated, and the cells were washed three times with 80 μL of Bath-1 buffer, maintaining 25 μL residual volume in each well. 4) 25 μL per well of Hexyl Dye Solution was dispensed into the cell plates. The cells were incubated for 20 minutes at room temp or ambient conditions in darkness. 5) 80 μL per well of Compound Loading Buffer was dispensed into compound plates. 6) The cell plates were washed three times with 80 μL per well of Bath-1 Buffer, leaving 25 µL of residual volume. Then 25 uL per well from compound plate was transferred to each cell plate. The mixture was incubated for 30 minutes at room temp/ambient conditions. 7) The plate was read on E-VIPR using the current-controlled amplifier to deliver stimulation wave pulses using the following protocol: 1.25 Amps, 2.5 ms pulse width biphasic waveform, 10 Hz for 10 seconds at a scan rate of 200 Hz. A pre-stimulus recording was performed for 0.5 seconds to obtain the un-stimulated intensities baseline. The stimulatory waveform was followed by 0.5 seconds of post-stimulation recording to examine the relaxation to the resting state. Data Analysis: Data were analyzed and reported as normalized ratios of emission intensities measured in the 460 nm and 580 nm channels. The response as a function of time was reported as the ratios obtained using the following formula: […] The data were further reduced by calculating the initial (Ri) and final (Rf) ratios. These were the average ratio values during part or all of the pre-stimulation period and during sample points during the stimulation period. The fluorescence ratio (Rf/Ri) was then calculated and reported as a function of time. Control responses were obtained by performing assays in the presence of the positive control, and in the absence of pharmacological agents (DMSO vehicle negative control). Responses to the negative (N) and positive (P) controls were calculated as above. The compound antagonist % activity A was then defined as: [formula] where X is the ratio response of the test compound. […]

IC50 [µM]	SMILES
0.002	COc1cc(OC(F)(F)F)ccc1Oc1ccc(Cl)c(F)c1C(=O)Nc1ccnc(C(N)=O)c1 [Compound 5, 4-[[3-chloro-2-fluoro-6-[2-methoxy-4-(trifluoromethoxy)phenoxy]benzoyl]amino]pyridine-2-carboxamide]
0.014	COc1cc(OC(F)(F)F)ccc1Oc1cc(C(F)(F)F)c(F)cc1C(=O)Nc1ccc(F)c(C(N)=O)c1 [Compound 23, N-(3-carbamoyl-4-fluoro-phenyl)-5-fluoro-2-[2-methoxy-4-(trifluoromethoxy)phenoxy]-4-(trifluoromethyl)benzamide]
0.011	COc1cc(OC(F)(F)F)ccc1Oc1cc(C2CC2)cc(F)c1C(=O)Nc1ccnc(C(N)=O)c1 [Compound 22, 4-[[4-cyclopropyl-2-fluoro-6-[2-methoxy-4-(trifluoromethoxy)phenoxy]benzoyl]amino]pyridine-2-carboxamide]

same assay, conditions: HEK cells expressing human NaV 1.8, HS (human serum) in compound loading buffer, 11 point dose response, top dose 3 μM, Table 20A, read-out: Nav 1.8 MedChem Optical Assay EVIPR Assay Method A HS IC50

SMILES	IC50 [µM]
Cn1nccc1-c1cc(F)ccc1Oc1ccc(C(F)(F)F)c(F)c1C(=O)Nc1ccc(F)c(C(N)=O)c1 [Compound 135, N-(3-Carbamoyl-4-fluoro-phenyl)-2-fluoro-6-[4-fluoro-2-(2-methylpyrazol-3-yl)phenoxy]-3-(trifluoromethyl)benzamide]	0.14
NC(=O)c1cc(NC(=O)c2c(Oc3ccc(OC(F)(F)F)cc3)ccc(F)c2F)ccc1F [Compound 63, N-(3-Carbamoyl-4-fluoro-phenyl)-2,3-difluoro-6-[4-(trifluoromethoxy)phenoxy]benzamide]	0.14
COc1cc(OC(F)(F)F)ccc1Oc1ccc(F)c(Cl)c1C(=O)Nc1ccc(C(N)=O)nc1 [Compound 186, 5-[[2-Chloro-3-fluoro-6-[2-methoxy-4-(trifluoromethoxy)phenoxy]benzoyl]amino]pyridine-2-carboxamide]	0.19
[2H]C([2H])([2H])Oc1cc(OC(F)(F)F)ccc1Oc1ccc(C(F)(F)F)c(F)c1C(=O)Nc1cccc(C(N)=O)n1 [Compound 168, 6-[[2-Fluoro-6-[2-(trideuteriomethoxy)-4-(trifluoromethoxy)phenoxy]-3-(trifluoromethyl)benzoyl]amino]pyridine-2-carboxamide]	0.14
NC(=O)c1cc(NC(=O)c2c(Oc3ccc(OC(F)(F)F)cc3)ccc3c2CCC3(F)F)ccn1 [Compound 191, 4-[[1,1-Difluoro-5-[4-(trifluoromethoxy)phenoxy]indane-4-carbonyl]amino]pyridine-2-carboxamide]	0.12
COc1cc(F)ccc1-c1cnc(C(F)(F)F)cc1C(=O)Nc1ccc(F)c(C(N)=O)c1 [Compound 200, N-(3-carbamoyl-4-fluoro-phenyl)-5-(4-fluoro-2-methoxy-phenyl)-2-(trifluoromethyl)pyridine-4-carboxamide]	> 3.1
[2H]C([2H])([2H])Oc1cc(OC(F)(F)F)ccc1Oc1ccc(C(F)(F)F)c(F)c1C(=O)Nc1cnc(C(N)=O)cc1C [Compound 161, 5-[[2-fluoro-6-[2-(trideuteriomethoxy)-4-(trifluoromethoxy)phenoxy]-3-(trifluoromethyl)benzoyl]amino]-4-methyl-pyridine-2-carboxamide]	0.15
NC(=O)c1cc(NC(=O)c2c(Oc3ccc(OC(F)(F)F)cc3O)ccc(C(F)(F)F)c2F)ccn1 [Compound 214, 4-[[2-Fluoro-6-[2-hydroxy-4-(trifluoromethoxy)phenoxy]-3-(trifluoromethyl)benzoyl]amino]pyridine-2-carboxamide]	0.66
NC(=O)c1cc(NC(=O)c2cc(F)c(C(F)(F)F)cc2Oc2ccc(OC(F)(F)F)cc2)ccn1 [Compound 76, 4-[[5-Fluoro-2-[4-(trifluoromethoxy)phenoxy]-4-(trifluoromethyl)benzoyl]amino]pyridine-2-carboxamide]	0.35
COc1cc(OC(F)(F)F)ccc1Oc1cc(C(F)(F)F)ncc1C(=O)Nc1ccc(C)c(C(N)=O)c1 [Compound 238, N-(3-carbamoyl-4-methyl-phenyl)-4-[2-methoxy-4-(trifluoromethoxy)phenoxy]-6-(trifluoromethyl)pyridine-3-carboxamide]	0.4

The remaining lines, values ahead:

IC50 [µM]	SMILES
0.113	COc1cc(OC(F)(F)F)ccc1Oc1ccc(C(F)(F)F)c(F)c1C(=O)Nc1cccc(C(N)=O)n1 [Compound 169, 6-[[2-Fluoro-6-[2-methoxy-4-(trifluoromethoxy)phenoxy]-3-(trifluoromethyl)benzoyl]amino]pyridine-2-carboxamide]
0.075	NC(=O)c1cc(NC(=O)c2c(Cl)cc(Cl)cc2Oc2ccc(OC(F)(F)F)cc2)ccn1 [Compound 180, 4-[[2,4-Dichloro-6-[4-(trifluoromethoxy)phenoxy]benzoyl]amino]pyridine-2-carboxamide]
0.066	COc1cc(OC(F)(F)F)ccc1Oc1cc(Cl)cc(F)c1C(=O)Nc1ccc(C(N)=O)nc1 [Compound 185, 5-[[4-Chloro-2-fluoro-6-[2-methoxy-4-(trifluoromethoxy)phenoxy]benzoyl]amino]pyridine-2-carboxamide]
0.055	[2H]C([2H])([2H])Oc1cc(OC(F)(F)F)ccc1Oc1cc(C(F)(F)F)cc(F)c1C(=O)Nc1ccc(C(N)=O)nc1 [Compound 154]
0.045	[2H]C([2H])([2H])Oc1c(Oc2ccc(C(F)F)c(F)c2C(=O)Nc2ccc(C(N)=O)nc2)ccc(OC(F)(F)F)c1F [Compound 236, 5-[[3-(Difluoromethyl)-2-fluoro-6-[3-fluoro-2-(trideuteriomethoxy)-4-(trifluoromethoxy)phenoxy]benzoyl]amino]pyridine-2-carboxamide]
0.044	COc1ccc(Oc2ccc(C(F)(F)F)c(F)c2C(=O)Nc2ccnc(C(N)=O)c2)c(OC(F)(F)F)c1 [Compound 196, 4-[[2-Fluoro-6-[4-methoxy-2-(trifluoromethoxy)phenoxy]-3-(trifluoromethyl)benzoyl]amino]pyridine-2-carboxamide]
0.026	COc1cc(OC(F)(F)F)ccc1Oc1cc(C(F)(F)F)c(F)cc1C(=O)Nc1ccnc(C(N)=O)c1 [Compound 75, 4-[[5-Fluoro-2-[2-methoxy-4-(trifluoromethoxy)phenoxy]-4-(trifluoromethyl)benzoyl]amino]pyridine-2-carboxamide]
0.023	NC(=O)c1cc(NC(=O)c2c(Oc3ccc(OC(F)(F)F)cc3)ccc(Cl)c2F)ccc1F [Compound 73, N-(3-Carbamoyl-4-fluoro-phenyl)-3-chloro-2-fluoro-6-[4-(trifluoromethoxy)phenoxy]benzamide]
0.014	COc1cc(OC(F)(F)F)ccc1Oc1cc(Cl)cc(F)c1C(=O)Nc1ccnc(C(N)=O)c1 [Compound 170, 4-[[4-Chloro-2-fluoro-6-[2-methoxy-4-(trifluoromethoxy)phenoxy]benzoyl]amino]pyridine-2-carboxamide]
0.014	[2H]C([2H])([2H])Oc1c(Oc2ccc(C(F)(F)F)c(F)c2C(=O)Nc2ccc(C(N)=O)nc2)ccc(OC(F)(F)F)c1F [Compound 221, 5-[[2-Fluoro-6-[3-fluoro-2-(trideuteriomethoxy)-4-(trifluoromethoxy)phenoxy]-3-(trifluoromethyl)benzoyl]amino]pyridine-2-carboxamide]
0.005	[2H]C([2H])([2H])Oc1c(Oc2ccc(C(F)F)c(F)c2C(=O)Nc2ccnc(C(N)=O)c2)ccc(OC(F)(F)F)c1F [Compound 235, 4-[[3-(Difluoromethyl)-2-fluoro-6-[3-fluoro-2-(trideuteriomethoxy)-4-(trifluoromethoxy)phenoxy]benzoyl]amino]pyridine-2-carboxamide]
